Patent US20260216131A1, “METHODS OF TREATING BREAST HYPERPLASIA USING TEZACAFTOR” (Jiangsu Bioscene Pharmaceutical Co., Ltd., priority 2023, published 2026)
Where “and” joins values, the source holds several entries; their conditions need not be identical. Identical values can stand only once. Entries after “also recorded” stand apart in the source; their conditions may differ.

What was measured:
Type in all cases: in vivo
[1] = tested on: rat model of breast hyperplasia; experiment: Serum E2 and PROG levels in rat model of breast hyperplasia; conditions: after 30 days of administration; assay kit; result in words
Text: (§1) Study Design: Thirty-two female SD rats, aged 7-8 weeks and weighing 200-250 g, were used. The rats were randomly divided into four groups: a normal control group, a model group, a tezacaftor treatment group (hereinafter referred to as the “treatment group”), and a tamoxifen treatment group (hereinafter referred to as the “positive control group”).
(§2) Before administration of the test drugs, breast hyperplasia was induced in the rats of the model group, the treatment group, and the positive control group. Specifically, estradiol benzoate injection was intramuscularly administered to the inner thigh of each rat at a dose of 0.5 mg/kg/day for 25 consecutive days. Starting on day 26, progesterone injection was intramuscularly administered to the inner thigh at a dose of 5 mg/kg/day for 5 consecutive days. The total modeling period was 30 days.
(§3) Normal control group: Normal saline in an equal volume was intramuscularly administered to the inner side of the hind limb of each rat once daily for 30 consecutive days, with the left and right hind limbs injected alternately. Beginning on day 31, normal saline was administered by gavage for 30 days.
(§4) Model group: Beginning on day 31, the vehicle was administered by gavage for 30 consecutive days. Samples were collected 0.5 hour after the last administration.
(§5) Treatment group: Beginning on day 31, tezacaftor was administered by gavage at a dose of 40 mg/kg/day for 30 consecutive days. Samples were collected 0.5 hour after the last administration.
(§6) Positive control group: Beginning on day 31, tamoxifen was administered by gavage at a dose of 4 mg/kg/day for 30 consecutive days. Samples were collected 0.5 hour after the last administration.
(§7) Evaluation indices: (1) nipple diameter and height; (2) ovarian index and uterine index; (3) changes in serum E2 and PROG levels; and (4) the number of mammary lobular acini, the acinar lumen diameter, and the duct diameter in rats.
In the study of Embodiment 1, after 30 days of administration, serum E2 and PROG levels in rats of each group were measured using assay kits.

[2] = tested on: rat model of breast hyperplasia; experiment: Ovarian index and uterine index in rat model of breast hyperplasia; conditions: after 30 days of administration; for Ovarian index (ovary weight/body weight) / Uterine index (uterine weight/body weight): gavage, tezacaftor 40 mg/kg/day, tamoxifen 4 mg/kg/day; for Change in ovarian index compared with the model group / Change in uterine index compared with the model group: result in words
Text: as §1, §2, §3, §4, §5, §6, §7
In the study of Embodiment 1, after 30 days of administration, the uterus weight, ovary weight, and body weight of the rats were measured. The uterine index was calculated as uterine weight/body weight, and the ovarian index was calculated as ovary weight/body weight. A comparison of the ovarian index and uterine index among the different groups is shown in FIG. 2, and the corresponding data are presented in Table 3.

[3] = tested on: rat model of breast hyperplasia; experiment: Histopathological evaluation (H&E) of mammary glands in rat model of breast hyperplasia; set-up: key to Histopathological Examination Score of mammary gland: Absence of a lesion was scored as 0; 1: very slight; 2: mild; 3: moderate; 4: severe; conditions: after 30 days of administration; for Breast hyperplasia compared with the model group: H&E pathology, result in words; for Histopathological Examination Score of mammary gland: individual animals No. 1-8, H&E staining
Text: as §1, §2, §3, §4, §5, §6, §7
In the study of Embodiment 1, after 30 days of administration, mammary gland tissues from rats in each group were collected, dehydrated, embedded, and sectioned. The sections were subjected to H&E staining and pathological analysis.

[4] = tested on: rat model of breast hyperplasia; experiment: Nipple diameter and height in rat model of breast hyperplasia; conditions: for Nipple Height / Nipple Diameter: female SD rats, gavage, tezacaftor 40 mg/kg/day, tamoxifen 4 mg/kg/day; for Nipple Diameter: in mm (unit assumed); for Change in nipple diameter compared with the model group / Change in nipple height compared with the model group: after 30 days of administration, result in words
Text: as §1, §2, §3, §4, §5, §6
Evaluation indices: (1) nipple diameter and height; (2) ovarian index and uterine index; (3) changes in serum E2 and PROG levels; and (4) the number of mammary lobular acini, the acinar lumen diameter, and the duct diameter in rats. […]

[5] = Day 0 of treatment (baseline after modeling)

| Compound | Serum E2 level compared with the model group [1] | Serum PROG level compared with the model group [1] | Ovarian index (ovary weight/body weight) [2] [%] | Uterine index (uterine weight/body weight) [2] [%] | Change in ovarian index compared with the model group [2] | Change in uterine index compared with the model group [2] | Breast hyperplasia compared with the model group [3] | Histopathological Examination Score of mammary gland [3] | Nipple Height [4, 5] [mm] | Nipple Diameter [4, 5] | Nipple Height ([4]; Day 15 of treatment) [mm] | Nipple Diameter ([4]; Day 15 of treatment) | Nipple Height ([4]; Day 30 of treatment) [mm] | Nipple Diameter ([4]; Day 30 of treatment) | Change in nipple diameter compared with the model group [4] | Change in nipple height compared with the model group [4] |
| --- | --- | --- | --- | --- | --- | --- | --- | --- | --- | --- | --- | --- | --- | --- | --- | --- |
| CC/C(=C(\c1ccccc1)c1ccc(OCCN(C)C)cc1)c1ccccc1 [tamoxifen] | significantly decreased | significantly increased | 0.145 ± 0.052 | 0.050 ± 0.015 | decreases | decreases | alleviated | 0 and 1 (4×) and 2 (3×) | 1.94 ± 0.16 | 1.63 ± 0.12 | 1.70 ± 0.17 | 1.28 ± 0.14 | 1.56 ± 0.12 | 1.11 ± 0.10 | decreases | decreases |
| CC(C)(CO)c1cc2cc(NC(=O)C3(c4ccc5c(c4)OC(F)(F)O5)CC3)c(F)cc2n1C[C@@H](O)CO [tezacaftor] | significantly decreased; also recorded: significantly improved | significantly increased; also recorded: significantly improved | 0.186 ± 0.088 | 0.055 ± 0.012 | decreases | significantly reduced; also recorded: decreases | alleviated; also recorded: alleviating breast hyperplasia | 1 (4×) and 2 (4×) | 2.03 ± 0.12 | 1.63 ± 0.14 | 1.73 ± 0.21 | 1.24 ± 0.13 | 1.61 ± 0.13 | 1.12 ± 0.08 | significantly reduced; also recorded: decreases | significantly reduced; also recorded: decreases |
